For one experiment, the target named is KRAS-G12C/SOS1 (Homo sapiens (Human), UniProt Q07889). Put plainly: Detection of inhibitory effects of compounds on KRAS-G12C/SOS1 (KRASG12C/SOS binding kit, HTRF). The following applies: Em665/620, read-out: IC50, inhibitory activity on interaction of KRAS-G12C/SOS1. The gist of the method: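 HTRF binding of Tag2-KRAS-G12C to Tag1-SOS1 with compounds (10-point 3-fold dilution from 5,000 nM) for 15 min at room temperature, then anti-Tag1-Tb and anti-Tag2-XL665 for 120 min at 4° C. Em665/620 read; inhibition normalised to control wells, IC50 from variable-slope log(inhibitor) fit.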
Chain of KRAS-G12C/SOS1 (Q07889 whole entry, stated change not applied): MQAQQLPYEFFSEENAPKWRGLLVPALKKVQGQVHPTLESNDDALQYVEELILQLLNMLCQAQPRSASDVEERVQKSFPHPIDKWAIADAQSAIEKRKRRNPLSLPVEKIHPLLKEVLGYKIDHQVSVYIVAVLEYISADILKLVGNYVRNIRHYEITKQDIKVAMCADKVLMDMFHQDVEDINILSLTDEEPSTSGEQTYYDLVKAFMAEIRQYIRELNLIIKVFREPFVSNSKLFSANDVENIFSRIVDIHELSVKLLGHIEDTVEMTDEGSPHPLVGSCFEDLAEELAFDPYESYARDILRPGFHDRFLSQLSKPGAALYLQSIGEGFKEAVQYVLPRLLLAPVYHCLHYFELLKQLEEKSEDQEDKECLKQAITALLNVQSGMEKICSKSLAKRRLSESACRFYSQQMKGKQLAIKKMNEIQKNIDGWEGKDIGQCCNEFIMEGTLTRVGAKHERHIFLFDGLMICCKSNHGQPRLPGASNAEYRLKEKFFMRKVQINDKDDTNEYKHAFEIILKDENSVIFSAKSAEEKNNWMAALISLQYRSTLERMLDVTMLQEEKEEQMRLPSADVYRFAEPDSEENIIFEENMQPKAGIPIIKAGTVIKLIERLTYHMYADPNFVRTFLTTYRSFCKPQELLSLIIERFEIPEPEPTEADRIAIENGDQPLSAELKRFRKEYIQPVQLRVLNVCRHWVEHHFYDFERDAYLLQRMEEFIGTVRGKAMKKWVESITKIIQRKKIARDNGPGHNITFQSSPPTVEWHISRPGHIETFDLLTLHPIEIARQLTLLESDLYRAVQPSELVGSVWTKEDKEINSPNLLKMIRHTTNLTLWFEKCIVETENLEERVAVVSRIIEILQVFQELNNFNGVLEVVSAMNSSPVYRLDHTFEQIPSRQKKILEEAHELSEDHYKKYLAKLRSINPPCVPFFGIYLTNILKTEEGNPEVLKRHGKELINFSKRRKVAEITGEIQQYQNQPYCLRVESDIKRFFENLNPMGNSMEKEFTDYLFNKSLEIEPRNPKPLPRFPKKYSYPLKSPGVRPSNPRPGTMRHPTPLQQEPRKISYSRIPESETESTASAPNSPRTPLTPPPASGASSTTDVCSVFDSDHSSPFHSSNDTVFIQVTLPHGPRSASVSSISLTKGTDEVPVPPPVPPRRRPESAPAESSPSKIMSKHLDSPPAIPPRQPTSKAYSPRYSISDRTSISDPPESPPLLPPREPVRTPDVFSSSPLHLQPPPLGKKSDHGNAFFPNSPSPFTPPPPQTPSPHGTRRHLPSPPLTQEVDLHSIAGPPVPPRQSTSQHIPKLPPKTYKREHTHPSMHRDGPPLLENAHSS
Background: In TR-FRET formats the signal depends on donor and acceptor labels being close together.

The test system of a further experiment is p-ERK of PC-9 cells. Put plainly: p-ERK HTRF assay in PC-9 cells. It is filed as cell-based. The settings on record: Homo sapiens, PC-9, 1 h, PC-9 lung cancer cells, 1 hour treatment, read-out: IC50, inhibitory activity on p-ERK of PC-9 cells. The method, then:
IC50 Values of Compounds Determined by p-ERK HTRF Assay in PC-9 Cells
Experimental objective: an inhibitory effect of the test compounds on the phosphorylation of PC-9ERK of lung cancer cells at a cellular level was evaluated by detecting the phosphorylation of ERK.
• PRMI 1640 medium (Invitrogen-11875093) • 0.25% pancreatin (Invitrogen-25200056) • Phosphoric acid buffer salt solution (PBS, pH 7.4) (Invitrogen-10010023) • Double-antibody (PS) (Invitrogen-15140122) • Fetal bovine serum (FBS) (Gibco-10091148) • Trypan blue (Gibco-15250061) • 10-cm culture dish (Corning-430167) • 10-mL pipette (Costar-4488) • Pipettor (Sartorius-17009031) • 15-mL centrifuge tube (Corning-430052) • 50-mL centrifuge tube (Corning-430829) • Cryotube (Thermo-377267) • 1.5-mL EP tube (Axygen-MCT-150-C-S) • Cell incubator (Thermo-371) • Microscope (Olympus-CKX41) • Centrifuge (Flying Pigeon-TDL-80-2B) • Cell counter (Countstar-IC-1000) • Envision (Perkin Elmer) • Spark 10M (TECAN) • Phospho-ERK1/2 (Thr202/Tyr204) Experimental kit (Cisbio, Cat. No. 64AERPEG) • PC-9 cells: RPMI1640+10% FBS+1% PS
• 1) PBS, 0.25% pancreatin, and a cell culture medium were placed in a water-bath kettle at 37° C. for preheating; • 2) cells were observed under a microscope, a fusion degree was evaluated, and no bacterial and fungi pollution was confirmed; • 3) a culture solution was removed, the cells were washed with 5 mL of PBS and digested with 2 mL of the 0.25% trypsin, the digestion was terminated with 10 mL of the fresh cell culture medium, a culture dish was rinsed, and the cells were transferred to a 15-mL centrifuge tube; • 4) the collected cells were centrifuged at 1,000 rpm for 5 minutes; • 5) after the centrifugation, the supernatant was discarded, the cells were resuspended in 5 mL of the cell culture medium, 20 μL of the resuspended cells were aspirated, and the number and viability of viable cells were recorded; • 6) the cell culture medium was used and the cell density was adjusted (PC-9:10,000 cells/well, and 45 μL per well); • 7) in a 384-well plate, 45 μL of a cell suspension per well was transferred according to an experimental design figure; and • 8) the cells were incubated overnight at 37° C. and 5% CO2.
• 1) The compounds were diluted from the stock concentration to 10 mM with 100% DMSO (Trametinib was diluted to 1 mM), then 3-fold diluted into 10 points (5 μL of the diluted compounds with the concentration of 10 mM were transferred to 10 μL of the DMSO in an LDV plate), and centrifuged at 1,000 rpm/min for 1 minute; • 2) 5 μL of the diluted compounds of step 1) were transferred to an inter plate 1 containing 45 μL of the cell culture medium (the compounds were diluted from 1,000× to 100×); • 3) 5 μL of the diluted compounds of step 2) were transferred to an inter plate 2 containing 45 μL of the cell culture medium (the compounds were diluted from 100× to 10×); • 4) 5 μL of the compounds were pipetted from the inter plate 2 into a cell culture plate (the compounds were diluted from 10 folds to 1 fold), the final concentrations of the test compounds were 10,000 nM, 3333.33 nM, 1111.11 nM, 370.37 nM, 123.46 nM, 41.15 nM, 13.72 nM, 4.57 nM, 1.52 nM, and […], the solution was centrifuged at 1,000 rpm/min for 1 minute, and the final content of the DMSO was 0.1%; and • 5) the cells were treated in an incubator at 37° C. for 1 hour. […]

`CC(=O)N1CCC(O)(c2cc3c(N[C@H](C)c4cccc(C(F)F)c4F)ccnc3c(C)n2)CC1` [Compound B-68]: the values for the IC50 on KRAS-G12C/SOS1 and in the experiment on p-ERK of PC-9 cells were no more than 0.1 µM and greater than 1 µM, respectively.
The like results for `CC(=O)N1C2CCC1CC(O)(c1cc3c(N[C@H](C)c4cccc(C(F)F)c4F)ccnc3c(C)n1)C2` (some centres unmarked) [Compound B-69] were, in that order, no more than 0.1 µM and greater than 1 µM.
As for `Cc1nc(C2(O)CCC(O)CC2)cc2c(N[C@H](C)c3cccc(C(F)F)c3F)ccnc12` (some centres unmarked) [Compound B-70], the IC50 at KRAS-G12C/SOS1 was no more than 0.1 µM; with p-ERK of PC-9 cells, 0.3 to 1 µM.
As for `CC(=O)N1CCN(c2cc3c(N[C@H](C)c4cccc(C(F)F)c4F)cc(C)nc3cn2)CC1` [Compound B-71], the IC50 at KRAS-G12C/SOS1 was no more than 0.1 µM; in the experiment with p-ERK of PC-9 cells, no more than 0.3 µM.
The like results for `Cc1cc(N[C@H](C)c2cccc(C(F)F)c2F)c2cc(N3CCCS3(=O)=O)ncc2n1` [Compound B-72] were, in that order, no more than 0.1 µM and 0.3 to 1 µM.
The like results for `COc1nc(N2CCN(C(C)=O)CC2)cc2c(N[C@H](C)c3cccc(C(F)F)c3F)ccnc12` [Compound B-73] were, in that order, no more than 0.1 µM and no more than 0.3 µM.
The corresponding values for `C[C@@H](Nc1ccnc2cnc(N3CCC(O)(CO)CC3)cc12)c1cccc(C(F)F)c1F` [Compound B-74] are no more than 0.1 µM and no more than 0.3 µM.
In the case of `C[C@@H](Nc1ccnc2cnc(N3CCC(O)(CN)CC3)cc12)c1cccc(C(F)F)c1F` [Compound B-75], the values for the IC50 at KRAS-G12C/SOS1 and in the experiment on p-ERK of PC-9 cells were no more than 0.1 µM and 0.3 to 1 µM, respectively.
The like results for `CNC(=O)C1(O)CCN(c2cc3c(N[C@H](C)c4cccc(C(F)F)c4F)ccnc3cn2)CC1` [Compound B-76] were, in that order, no more than 0.1 µM and no more than 0.3 µM.
The corresponding values for `C[C@@H](Nc1ccnc2cnc(N3C[C@H](O)C[C@H]3CO)cc12)c1cccc(C(F)F)c1F` [Compound B-78] are no more than 0.1 µM and no more than 0.3 µM.
The corresponding values for `C[C@@H]1OCC2(CCN(c3cc4c(N[C@H](C)c5cccc(C(F)F)c5F)ccnc4cn3)CC2)[C@@H]1N` [Compound B-79] are no more than 0.1 µM and no more than 0.3 µM.
On to `COC1(c2cc3c(N[C@H](C)c4cccc(C(F)F)c4F)ccnc3cn2)CCC(O)CC1` (some centres unmarked) [Compound B-82], for which the IC50 is no more than 0.1 µM on KRAS-G12C/SOS1 and no more than 0.3 µM in the experiment with p-ERK of PC-9 cells.
For the molecule `C[C@@H](Nc1ccnc2cnc(C3(O)CCS(=O)(=O)CC3)cc12)c1cccc(C(F)F)c1F` [Compound B-91], the IC50 on KRAS-G12C/SOS1 is no more than 0.1 µM; with p-ERK of PC-9 cells it was 0.3 to 1 µM.
The like results for `C[C@@H](Nc1ccnc2cnc(C3(O)CCOCC3)cc12)c1cccc(C(F)F)c1F` [Compound B-103] were, in that order, no more than 0.1 µM and 0.3 to 1 µM.
The corresponding values for `COC1(c2cc3c(N[C@H](C)c4cccc(C(F)F)c4F)ccnc3cn2)CCOCC1` [Compound B-104] are no more than 0.1 µM and 0.3 to 1 µM.
The like results for `C[C@@H](Nc1ccnc2cnc(-c3ccc(=O)n(C)c3)cc12)c1cccc(C(F)F)c1F` [Compound B-107] were, in that order, no more than 0.1 µM and no more than 0.3 µM.
With `C[C@@H](Nc1ccnc2cnc(-c3ccn(C)c(=O)c3)cc12)c1cccc(C(F)F)c1F` [Compound B-108], the IC50 on KRAS-G12C/SOS1 is no more than 0.1 µM; in the experiment with p-ERK of PC-9 cells, no more than 0.3 µM.
The corresponding values for `CC(=O)N1CC=C(c2cc3c(N[C@H](C)c4cccc(C(F)F)c4F)ccnc3cn2)C1` [Compound B-109] are no more than 0.1 µM and no more than 0.3 µM.
The corresponding values for `CC(=O)N1CCC(c2cc3c(N[C@H](C)c4cccc(C(F)F)c4F)ccnc3cn2)C1` (some centres unmarked) [Compound B-110] are no more than 0.1 µM and no more than 0.3 µM.
The like results for `CC(=O)N1CCN(c2cc3c(N[C@H](C)c4cccc(C(F)F)c4F)c(F)cnc3cn2)CC1` [Compound B-111] were, in that order, no more than 0.1 µM and no more than 0.3 µM.
Take `CC(=O)N1CCC(O)(c2cc3c(N[C@H](C)c4cccc(C(F)(F)F)c4F)ccnc3cn2)CC1` [Compound B-112]: the results for the IC50 on KRAS-G12C/SOS1 and in the experiment with p-ERK of PC-9 cells were no more than 0.1 µM and no more than 0.3 µM, respectively.
For `C[C@@H](Nc1ccnc2cnc(C3(O)CCN(C(=O)CO)CC3)cc12)c1cccc(C(F)F)c1F` [Compound B-113], the results for the IC50 on KRAS-G12C/SOS1 and with p-ERK of PC-9 cells were no more than 0.1 µM and no more than 0.3 µM, respectively.
The corresponding values for `COCC(=O)N1CCC(O)(c2cc3c(N[C@H](C)c4cccc(C(F)F)c4F)ccnc3cn2)CC1` [Compound B-114] are no more than 0.1 µM and no more than 0.3 µM.
The corresponding values for `C[C@@H](Nc1ccnc2cnc(C3(O)CCN(C(=O)CC#N)CC3)cc12)c1cccc(C(F)F)c1F` [Compound B-116] are no more than 0.1 µM and no more than 0.3 µM.
The corresponding values for `C[C@@H](Nc1ccnc2cnc(C3(O)CCN(CCO)CC3)cc12)c1cccc(C(F)F)c1F` [Compound B-117] are no more than 0.1 µM and 0.3 to 1 µM.
Turning to `C[C@@H](Nc1ccnc2cnc(C3(O)CCN(C(=O)CO)CC3)cc12)c1cccc(C(F)(F)F)c1F` [Compound B-118], the IC50 on KRAS-G12C/SOS1 was no more than 0.1 µM; in the experiment on p-ERK of PC-9 cells, no more than 0.3 µM.
For `C[C@H](O)C(=O)N1CCC(O)(c2cc3c(N[C@H](C)c4cccc(C(F)F)c4F)ccnc3cn2)CC1` [Compound B-119], the IC50 on KRAS-G12C/SOS1 is no more than 0.1 µM; with p-ERK of PC-9 cells, no more than 0.3 µM.
The like results for `C[C@@H](Nc1ccnc2cnc(C3(O)CCN(C(=O)C(C)(C)O)CC3)cc12)c1cccc(C(F)F)c1F` [Compound B-121] were, in that order, no more than 0.1 µM and no more than 0.3 µM.
The corresponding values for `CNCC(=O)N1CCC(O)(c2cc3c(N[C@H](C)c4cccc(C(F)F)c4F)ccnc3cn2)CC1` [Compound B-122] are no more than 0.1 µM and greater than 1 µM.
The like results for `C[C@@H](Nc1c(F)cnc2cnc(C3(O)CCN(C(=O)CO)CC3)cc12)c1cccc(C(F)F)c1F` [Compound B-123] were, in that order, no more than 0.1 µM and no more than 0.3 µM.
`C[C@H](O)C(=O)N1CCC(O)(c2cc3c(N[C@H](C)c4cccc(C(F)F)c4F)c(F)cnc3cn2)CC1` [Compound B-124]: the IC50 at KRAS-G12C/SOS1 is no more than 0.1 µM; in the experiment with p-ERK of PC-9 cells, no more than 0.3 µM.
The corresponding values for `C[C@H](O)C(=O)N1CCC(O)(c2cc3c(N[C@H](C)c4cccc(C(C)(F)F)c4F)ccnc3cn2)CC1` [Compound B-125] are no more than 0.1 µM and no more than 0.3 µM.
The corresponding values for `C[C@H](O)C(=O)N1CCC(O)(c2cc3c(N[C@H](C)c4cccc(C(F)(F)F)c4F)ccnc3cn2)CC1` [Compound B-126] are no more than 0.1 µM and no more than 0.3 µM.
The like results for `C[C@@H](Nc1ccnc2cnc(C3(O)CCN(C(=O)C4(C#N)CC4)CC3)cc12)c1cccc(C(F)F)c1F` [Compound B-127] were, in that order, no more than 0.1 µM and no more than 0.3 µM.
On to `C[C@@H](Nc1ccnc2cnc(C3(O)CCN(C(=O)C4CC4)CC3)cc12)c1cccc(C(F)F)c1F` [Compound B-128], for which the IC50 was no more than 0.1 µM on KRAS-G12C/SOS1 and no more than 0.3 µM in the experiment with p-ERK of PC-9 cells.
The like results for `C[C@@H](Nc1ccnc2cnc(C3(O)CCN(C(=O)c4ccccn4)CC3)cc12)c1cccc(C(F)F)c1F` [Compound B-129] were, in that order, no more than 0.1 µM and 0.3 to 1 µM.
The corresponding values for `C[C@@H](Nc1ccnc2cnc(C3(O)CCN(C(=O)c4cccnc4)CC3)cc12)c1cccc(C(F)F)c1F` [Compound B-130] are no more than 0.1 µM and 0.3 to 1 µM.
